Common to all, as to format: cell-based, human
Experiment [1] has as its system K562 cells. In words: Growth curve of K562 cells (trypan blue viable cell count). The note with it: 40 μg/ml, counted every day for 5 days. The procedure: To examine the effect of the compound (R)-NALPCE on cell growth, K562 cells was monitored for growth in the presence thereof. The cells were aliquoted at a density of 1×10^5 cells per well in 6-well plates and treated with 40 μg/ml. After staining with trypan blue, viable cells were counted every day for 5 days.

Experiment [2] concerns HEL cells. In words: Growth curve of HEL cells (trypan blue viable cell count). Particulars: 5 μg/ml, counted every day for 5 days. The procedure:
To examine the effect of the compound (R)-NALPCE on cell growth, the HEL cells was monitored for growth curve in the presence thereof. The cells were aliquoted at a density of 3×10^5 cells per well in 6-well plates and treated with 5 μg/ml of (R)-NALPCE. After staining with trypan blue, viable cells were counted every day for 5 days.

The test system of experiment [3] is HEL cells. In words: Megakaryocyte differentiation, CD41/CD61 expression over time by FACS, HEL cells. Particulars: 5 μg/ml, 5 days. The procedure:
HEL cells were aliquoted at a density of 3×10^5 cells per well in 6-well plates and treated with 5 μg/ml of (R)-NALPCE, followed by incubation for 5 days. After centrifugation (1,000 rpm, 5 min), the cell pellets thus obtained were washed three times with 0.01% bovine serum albumin (BSA) in PBS. The cells were incubated with 10 μl of anti-CD41-fluorescein-5-isothiocyanate (FITC) (Dako Chemicals, Carpenteria, Calif.) or 20 μl of anti-CD61-phycoerythrin (PE) (BD Pharmingen) in 200 μl 0.01% bovine serum albumin (BSA)-PBS at 4° C. for 50 min with spinning to realize homogeneous fluorescent staining. After centrifugation (1,000 rpm, 10 min), the cell pellets thus obtained were rinsed three times with 0.01% bovine serum albumin (BSA)-PBS. Fluorescence was analyzed on a fluorescence-activated cell sorter (FACS) (Aria) using a Cellquest program.
In general terms: Flow cytometry measures light scatter and fluorescence of single cells or particles in a stream.

For experiment [4], the system named is K562 cells. In words: Cell differentiation of K562 cells on OP9 cells, optical microscopy. The procedure:
A stromal line of OP9 cells derived from […] was aliquoted at a density of 1×10^5 cells in 6-well plates and incubated for 24 hrs. After the OP9 cells were uniformly attached onto the bottom of the plates, K562 cells were layered at a density of 1×10^5 cells on the OP9 cells in 6-well plates. The cells were treated with 40 μg/ml of (R)-NALPCE, or 500 pmole, 10 nmole or 50 nmole of PMA before incubation for 5 days. They were observed under an optical microscope with 200× magnification.

Experiment [5] concerns HEL cells. Put plainly: Cell differentiation of HEL cells, optical microscopy. Particulars: 5 μg/ml (R)-NALPCE, 10 nmole PMA or 50 ng/ml TPO, 5 days. The procedure:
HEL cells were aliquoted at a density of 3×10^5 cells per well in 6-well plates and treated with 5 μg/ml of (R)-NALPCE, 10 nmole of PMA, or 50 ng/ml of TPO, followed by incubation in a day-dependent manner for 5 days. They were observed under an optical microscope with 200× magnification.

The subject of experiment [6] is K562 cells. In words: Transmission electron microscopy of cells differentiated from K562 cells on OP9 cells. Particulars: 40 μg/ml, 5 days. The procedure: OP9 cells were aliquoted at a density of 1×10^5 cells in 6-well plates and incubated for 24 hrs. After the OP9 cells were uniformly attached onto the bottom of the plates, K562 cells were layered at a density of 1×10^5 cells over the OP9 cells in 6-well plates. The cells were treated with 40 μg/ml of (R)-NALPCE before incubation for 5 days. Following centrifugation (1,000 rpm, 5 min), the cells were pre-fixed with 2.5% glutaraldehyde in PBS (pH 7.4) for 24 hrs. Thereafter, cell pellets obtained by centrifugation (4,000 rpm, 10 min) were fixed for 1 hr with 1% osmium tetraoxide in 0.1 M PBS (pH 7.4). After being washed with PBS, the post-fixed samples were dehydrated with 60, 70, 80, 90, and 95% ethanol for 10 min each and then twice with 100% ethanol for 10 min each, and embedded in epoxy resin. The embedded samples were sectioned into slices 1 μm thick using an ultramicrotome diamond knife (Richert-Jung, U.S.A.) and stained with 1% toluidine blue for optical microscopy. Separately, ultra-thin sections ranging in thickness from 60 to 70 nm were prepared and stained sequentially with 1-2% uranyl acetate and 1% lead citrate for transmission electron microscopy, in which electrons were accelerated at 75 kV using H-600 TEM (Hitachi, Japan).

Experiment [7] relates to K562 cells. Put plainly: Active form of platelet-like cells secreted from differentiated K562 cells, fluorescence microscopy. As to the method: OP9 cells were aliquoted at a density of 1×10^5 cells per well in 6-well plates and incubated for 24 hrs. After the OP9 cells were uniformly attached onto the bottom of the plates, K562 cells were layered at a density of 1×10^5 cells over the OP9 cells in the 6-well plates. The cells were treated with 40 μg/ml of (R)-NALPCE before incubation in a day-dependent manner for 5 days. […] The platelet-like cells were separated from the megakaryocytes by centrifuging the differentiated K562 cells at 500 rpm for 20 min and further centrifuging the supernatant at 3,000 rpm for 10 min.
A morphological comparison was made between the platelet-like cells and the pre-existing blood platelets using fibrinogen-coated slides. General slides (POLY-PREP, Sigma, U.S.A.) were coated with 20 μg/ml of fibrinogen in PBS ((R)-NALPCE-treated group) or with 1% bovine serum albumin (control) in PBS, and then incubated at 37° C. for 2 hrs in a humid atmosphere. A suspension of the separated platelet-like cells and the pre-existing blood platelets in PBS was placed on the slides. […] A drop of a mounting solution was spotted on the slides, which were then covered with a coverslip before observation under a fluorescence microscope. […] The cells thus stained were very gently washed three times with PBS and observed using a fluorescence microscope (Axiovision, Zeiss) with 400× magnification.

In the case of `CCCCCCCCCCCCCCCCCC(=O)NC(COP(=O)([O-])OCC[N+](C)(C)C)C(=O)OC` [(R)-NALPCE, N-steroyl-O-phosphocholine-D-serine methyl ester], the “cell growth curve (viable cells)” value with K562 cells [1] and with HEL cells [2] was “relatively low cell growth curve” throughout. In addition, in the experiment with HEL cells [3], the “CD41 and CD61 expression rate” value was “increase in expression rate in a day-dependent manner”. In addition, in the experiment with K562 cells [4] ((R)-NALPCE with OP9 cells, PMA treatment), the “production or secretion of thrombocytes by differentiated megakaryocytes” value is recorded as “released a lot of thrombocytes”. For the same compound, the “cell morphology (optical microscope)” value was “increased in size in a time-dependent manner, and anucleate cells such as thrombocytes were observed” in the experiment on K562 cells [4] (K562 cells on OP9 cells, 40 μg/ml, 5 days); “increase in size in a day-dependent manner” with HEL cells [5]. In addition, the “maturity of megakaryocytes (TEM)” value with K562 cells [6] is recorded as “have demarcation channels within which platelets are held”. The “morphology of released platelets (TEM)” value with K562 cells [6] is given as “morphology similar to that of the pre-existing blood platelets”. In addition, the “polymorphonuclear megakaryocytes having at least two nuclei among the differentiated cells” value in the experiment with K562 cells [6] (TEM) is given as not below 40%. For the same compound, the “appearance of anucleate platelet-like cells” value with K562 cells [7] (K562 cells on OP9 cells, 40 μg/ml, Day 5 after the treatment) is reported as “a large number of anucleate platelet-like cells appeared”. Moreover, the “activation of released anucleate cells” value with K562 cells [7] (fibrinogen-coated slides, activators ADP, epinephrine, AYPGFK, MnCl2) is “activated in the same manner as the pre-existing blood platelets”.

These data come from US20080268535A1, “Method for Inducing the Differentiation of Human Myelogenous Leukemia Cells Into Megakarocytes or Thrombocytes” (EWHA University - Industry Collaboration Foundation, priority 2005, published 2008).
